Data published in PubChem BioAssay (NCI).
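96-well plates; 48 h exposure; 5 concentrations. Endpoints by linear interpolation between flanking doses. Not reached: highest tested concentration assigned. TGI is the concentration that stops growth completely.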

Columns and labels:
Test in all cases: NCI-60 cell line screen, 48 h
OVCAR-5 ovarian = test system: OVCAR-5 ovarian
M14 melanoma = test system: M14 melanoma
NCI-H226 lung = test system: NCI-H226 lung
SW-620 colon = test system: SW-620 colon
OVCAR-3 ovarian = test system: OVCAR-3 ovarian
LOX IMVI melanoma = test system: LOX IMVI melanoma
SK-MEL-5 melanoma = test system: SK-MEL-5 melanoma
COLO 205 colon = test system: COLO 205 colon
HS 578T breast = test system: HS 578T breast
MDA-MB-435 = test system: MDA-MB-435
NCI-H522 lung = test system: NCI-H522 lung

| SMILES | TGI (OVCAR-5 ovarian) | TGI (M14 melanoma) | TGI (NCI-H226 lung) | TGI (SW-620 colon) | TGI (OVCAR-3 ovarian) | TGI (LOX IMVI melanoma) | TGI (SK-MEL-5 melanoma) | TGI (COLO 205 colon) | TGI (HS 578T breast) | TGI (MDA-MB-435) | TGI (NCI-H522 lung) |
| --- | --- | --- | --- | --- | --- | --- | --- | --- | --- | --- | --- |
| C/C=N\N1C(=O)c2ccccc2C1=O | > 100 µM | > 100 µM | > 100 µM | > 100 µM | > 100 µM | > 100 µM | > 100 µM |  |  |  |  |
| NC(N)=NCCCC(NC(=O)OCCCCn1ccc(N)nc1=O)C(=O)O (centres undefined) | > 100 µM | > 100 µM | > 100 µM | > 100 µM | > 100 µM | > 100 µM |  | > 100 µM | > 100 µM | > 100 µM |  |
| CC1=NN(c2nc(N)nc(CF)n2)C(C)(C)C1 |  | > 100 µM | > 100 µM | > 100 µM |  | > 100 µM | > 100 µM | > 100 µM | > 100 µM | > 100 µM |  |
| COC(=O)C1=C(C(=O)OC)SC2(S1)C(C(=O)OC)=C(C(=O)OC)Sc1c2ssc1=NC(C)(C)C | 3.68 µM | 3.15 µM | 12.8 µM |  | 3.5 µM | 2.4 µM | 4.92 µM | 3.22 µM | 18.5 µM | 3.08 µM |  |
| N#CCC(=O)N1CCCCCCC1 | > 100 µM | > 100 µM |  | 21.3 µM |  | > 100 µM | > 100 µM | 28.9 µM |  |  |  |
| CCN1CCC(O)(/C=C/c2ccc(OC)cc2)C(C(=O)/C=C/c2ccc(OC)cc2)C1 (centres undefined) | 28.8 µM | 34.1 µM | 29.7 µM | 17.9 µM | 27.6 µM | 8.82 µM |  | 20.6 µM |  | 19 µM | 26.1 µM |
| O=c1oc2ccccc2c(O)c1C(C/C(CCN1CCCC1)=N\Nc1ccccc1)c1ccccc1 (centres undefined) | > 100 µM | > 100 µM | > 100 µM | > 100 µM | > 100 µM | > 100 µM | > 100 µM |  |  |  | > 100 µM |
| CCc1cccc(C)c1NC(=O)CC1C(=O)Nc2ccccc2S1(=O)=O (centres undefined) | 56.4 µM | 72.1 µM | > 100 µM | 29.3 µM | 33.5 µM | 27.3 µM | 44.4 µM |  |  |  | 32.5 µM |
| Brc1ccc2c(-c3csc(-c4c[nH]c5ccccc45)n3)c[nH]c2c1 | 32.7 µM | 27.3 µM | 34 µM | 30.1 µM | 29.1 µM | 29.6 µM | 28.6 µM | 25.4 µM |  | 32.9 µM | 32.2 µM |
